Entries after “also recorded” stand apart in the source; their conditions may differ. Where two headings read alike, the source gives them in different places.
What was measured:
OCT2 = target: T1, OCT2 (Homo sapiens, UniProt O15244); assay: OCT2-mediated methyl-4-phenylpyridinium uptake in HEK293-OCT2 cells; format: in vitro ADME
T1 construct: host or cells: HEK293

OAT3 = target: T2, OAT3 (Homo sapiens, UniProt Q8TCC7); assay: OAT3-mediated estrone-3-sulfate uptake in HEK293-OAT3 cells; format: in vitro ADME
T2 construct: host or cells: HEK293
T2 sequence (Q8TCC7 1-542): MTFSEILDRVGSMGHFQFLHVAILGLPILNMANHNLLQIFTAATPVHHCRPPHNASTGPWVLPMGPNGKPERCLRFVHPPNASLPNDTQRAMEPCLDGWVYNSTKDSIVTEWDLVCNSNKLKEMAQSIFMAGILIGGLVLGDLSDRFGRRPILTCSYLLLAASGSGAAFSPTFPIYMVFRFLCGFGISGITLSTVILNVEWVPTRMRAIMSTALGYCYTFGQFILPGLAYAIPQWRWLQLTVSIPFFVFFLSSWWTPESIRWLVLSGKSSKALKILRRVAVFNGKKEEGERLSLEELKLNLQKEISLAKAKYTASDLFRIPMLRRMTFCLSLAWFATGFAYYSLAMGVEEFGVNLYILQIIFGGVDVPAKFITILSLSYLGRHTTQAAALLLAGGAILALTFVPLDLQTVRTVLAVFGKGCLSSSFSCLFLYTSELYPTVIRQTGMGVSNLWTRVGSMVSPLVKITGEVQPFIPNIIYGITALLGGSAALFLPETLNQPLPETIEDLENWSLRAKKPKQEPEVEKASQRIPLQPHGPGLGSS

OATP1B1 = target: T3, OATP1B1 (Homo sapiens, UniProt Q9Y6L6); assay: OATP1B1-mediated estrone-3-sulfate uptake in HEK293-OATP1B1 cells; format: in vitro ADME
T3 construct: host or cells: HEK293

OATP1B3 = target: T4, OATP1B3 (Homo sapiens, UniProt Q9NPD5); assay: OATP1B3-mediated estradiol-17β-D-glucuronide uptake in HEK293-OATP1B3 cells; format: in vitro ADME
T4 construct: host or cells: HEK293

[1] = system: human cannabinoid receptor type 1 (hCB1); details: cited from earlier work
[2] = system: human cannabinoid receptor type 2 (hCB2); details: cited from earlier work
[3] = design: method as in PMID 26105953; details: cited from earlier work
[4] = 25 of 58 cases; dose regimen not specified; cited from earlier work
CYP2B6 = CYP2B6 (Homo sapiens, UniProt P20813); assay: CYP2B6 bupropion hydroxylase inhibition in ultrapooled human liver microsomes
Chain of CYP2B6 (P20813 whole entry): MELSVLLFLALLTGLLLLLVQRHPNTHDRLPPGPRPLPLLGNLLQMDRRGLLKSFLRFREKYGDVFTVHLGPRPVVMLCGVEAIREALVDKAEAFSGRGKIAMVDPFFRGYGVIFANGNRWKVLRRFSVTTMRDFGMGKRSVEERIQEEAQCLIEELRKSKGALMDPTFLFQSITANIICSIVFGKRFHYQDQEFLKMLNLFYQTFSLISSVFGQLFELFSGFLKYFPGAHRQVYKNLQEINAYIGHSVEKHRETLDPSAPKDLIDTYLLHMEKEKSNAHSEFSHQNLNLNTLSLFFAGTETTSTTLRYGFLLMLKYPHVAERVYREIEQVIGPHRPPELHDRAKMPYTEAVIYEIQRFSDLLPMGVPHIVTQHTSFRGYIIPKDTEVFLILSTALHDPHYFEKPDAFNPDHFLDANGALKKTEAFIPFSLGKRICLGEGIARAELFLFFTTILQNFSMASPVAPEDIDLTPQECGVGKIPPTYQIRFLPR

UGT1A1 = UGT1A1 (Homo sapiens, UniProt P22309); assay: UGT1A1 SN-38 glucuronidation inhibition in ultrapooled human liver microsomes
CYP1A2 = CYP1A2 (Homo sapiens, UniProt P05177); assay: CYP1A2 phenacetin O-deethylase inhibition in ultrapooled human liver microsomes
Chain of CYP1A2 (P05177 whole entry): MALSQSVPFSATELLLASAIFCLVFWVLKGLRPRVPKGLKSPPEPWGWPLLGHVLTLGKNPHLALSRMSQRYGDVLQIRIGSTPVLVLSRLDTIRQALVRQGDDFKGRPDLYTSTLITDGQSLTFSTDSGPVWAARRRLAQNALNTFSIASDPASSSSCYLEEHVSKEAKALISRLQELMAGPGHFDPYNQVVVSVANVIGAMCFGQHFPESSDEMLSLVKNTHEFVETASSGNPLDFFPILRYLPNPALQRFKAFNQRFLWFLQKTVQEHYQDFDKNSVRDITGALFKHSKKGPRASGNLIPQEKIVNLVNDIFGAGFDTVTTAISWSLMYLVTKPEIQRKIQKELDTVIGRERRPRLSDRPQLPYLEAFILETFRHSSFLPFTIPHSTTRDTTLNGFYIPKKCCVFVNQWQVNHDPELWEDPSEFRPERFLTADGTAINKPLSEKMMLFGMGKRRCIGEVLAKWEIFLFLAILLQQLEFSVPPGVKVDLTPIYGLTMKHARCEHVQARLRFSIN

CYP2C8 = target: T5, CYP2C8 (Homo sapiens, UniProt P10632); assay: CYP2C8 amodiaquine N-deethylase inhibition in ultrapooled human liver microsomes; details: for IC50: CYP2C8 amodiaquine N-deethylase, ultrapooled human liver microsomes
T5 sequence (P10632 1-490): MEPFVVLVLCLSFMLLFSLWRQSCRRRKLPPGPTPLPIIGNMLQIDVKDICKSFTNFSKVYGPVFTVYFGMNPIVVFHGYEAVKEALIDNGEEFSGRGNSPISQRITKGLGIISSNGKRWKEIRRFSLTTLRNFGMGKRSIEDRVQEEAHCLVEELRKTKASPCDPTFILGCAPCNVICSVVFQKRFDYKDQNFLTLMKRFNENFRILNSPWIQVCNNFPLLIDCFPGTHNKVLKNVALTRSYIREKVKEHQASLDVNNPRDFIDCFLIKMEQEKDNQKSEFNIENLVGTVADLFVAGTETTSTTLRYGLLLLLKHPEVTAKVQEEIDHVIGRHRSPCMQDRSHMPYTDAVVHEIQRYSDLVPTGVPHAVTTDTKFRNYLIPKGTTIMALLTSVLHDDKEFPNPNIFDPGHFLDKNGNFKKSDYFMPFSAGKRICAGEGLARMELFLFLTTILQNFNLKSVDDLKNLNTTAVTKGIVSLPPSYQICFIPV

CYP2D6 = CYP2D6 (Homo sapiens, UniProt P10635); assay: CYP2D6 bufuralol 1'-hydroxylase inhibition in ultrapooled human liver microsomes
Chain of CYP2D6 (P10635 whole entry): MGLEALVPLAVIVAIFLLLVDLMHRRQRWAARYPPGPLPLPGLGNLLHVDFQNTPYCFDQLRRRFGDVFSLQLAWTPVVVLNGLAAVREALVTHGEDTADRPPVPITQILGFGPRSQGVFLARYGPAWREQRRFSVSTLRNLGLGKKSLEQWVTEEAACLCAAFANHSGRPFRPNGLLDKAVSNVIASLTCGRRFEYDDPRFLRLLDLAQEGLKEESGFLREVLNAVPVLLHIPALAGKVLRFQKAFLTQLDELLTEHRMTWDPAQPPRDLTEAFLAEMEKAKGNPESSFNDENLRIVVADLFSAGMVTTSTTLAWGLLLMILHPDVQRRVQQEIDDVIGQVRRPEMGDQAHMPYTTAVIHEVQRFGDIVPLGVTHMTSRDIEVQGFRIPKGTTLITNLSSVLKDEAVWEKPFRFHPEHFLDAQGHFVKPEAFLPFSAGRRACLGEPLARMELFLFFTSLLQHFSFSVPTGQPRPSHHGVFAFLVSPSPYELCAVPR

CYP2C9 = CYP2C9 (Homo sapiens, UniProt P11712); assay: CYP2C9 diclofenac 4'-hydroxylase inhibition in ultrapooled human liver microsomes; details: for IC50: CYP2C9 diclofenac 4'-hydroxylase, ultrapooled human liver microsomes
Chain of CYP2C9 (P11712 whole entry): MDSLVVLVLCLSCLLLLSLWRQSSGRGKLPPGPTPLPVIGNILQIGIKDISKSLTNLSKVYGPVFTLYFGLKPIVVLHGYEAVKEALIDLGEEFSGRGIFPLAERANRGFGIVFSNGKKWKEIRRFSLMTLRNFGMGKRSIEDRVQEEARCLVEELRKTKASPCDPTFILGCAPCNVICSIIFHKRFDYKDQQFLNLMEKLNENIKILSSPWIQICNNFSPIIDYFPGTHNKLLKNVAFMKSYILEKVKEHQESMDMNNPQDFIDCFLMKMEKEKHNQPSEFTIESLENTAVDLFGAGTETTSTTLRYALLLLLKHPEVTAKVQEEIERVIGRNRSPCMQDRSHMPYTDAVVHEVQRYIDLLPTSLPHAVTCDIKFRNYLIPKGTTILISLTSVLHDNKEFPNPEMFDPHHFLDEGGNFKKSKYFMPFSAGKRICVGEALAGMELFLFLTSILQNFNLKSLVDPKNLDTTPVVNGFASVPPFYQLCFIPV

CYP2C19 = CYP2C19 (Homo sapiens, UniProt P33261); assay: CYP2C19 [S]-mephenytoin 4'-hydroxylase inhibition in ultrapooled human liver microsomes; details: for IC50: CYP2C19 [S]-mephenytoin 4'-hydroxylase, ultrapooled human liver microsomes
Chain of CYP2C19 (P33261 whole entry): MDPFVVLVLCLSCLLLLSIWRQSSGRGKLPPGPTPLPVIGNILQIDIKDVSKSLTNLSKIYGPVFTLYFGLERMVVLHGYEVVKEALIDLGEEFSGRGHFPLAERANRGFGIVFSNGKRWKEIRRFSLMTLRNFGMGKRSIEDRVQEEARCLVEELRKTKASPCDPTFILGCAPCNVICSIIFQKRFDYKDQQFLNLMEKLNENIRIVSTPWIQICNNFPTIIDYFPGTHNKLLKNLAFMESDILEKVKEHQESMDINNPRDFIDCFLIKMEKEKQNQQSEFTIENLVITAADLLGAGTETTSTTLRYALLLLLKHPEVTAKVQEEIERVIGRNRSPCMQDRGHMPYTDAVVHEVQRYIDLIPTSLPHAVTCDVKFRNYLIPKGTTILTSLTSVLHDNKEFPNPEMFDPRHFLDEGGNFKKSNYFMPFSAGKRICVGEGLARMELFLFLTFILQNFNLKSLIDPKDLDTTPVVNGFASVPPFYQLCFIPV

UGT1A6 = UGT1A6 (Homo sapiens, UniProt P19224); assay: UGT1A6 N-acetylserotonin glucuronidation inhibition in ultrapooled human liver microsomes
Chain of UGT1A6 (P19224 27-532): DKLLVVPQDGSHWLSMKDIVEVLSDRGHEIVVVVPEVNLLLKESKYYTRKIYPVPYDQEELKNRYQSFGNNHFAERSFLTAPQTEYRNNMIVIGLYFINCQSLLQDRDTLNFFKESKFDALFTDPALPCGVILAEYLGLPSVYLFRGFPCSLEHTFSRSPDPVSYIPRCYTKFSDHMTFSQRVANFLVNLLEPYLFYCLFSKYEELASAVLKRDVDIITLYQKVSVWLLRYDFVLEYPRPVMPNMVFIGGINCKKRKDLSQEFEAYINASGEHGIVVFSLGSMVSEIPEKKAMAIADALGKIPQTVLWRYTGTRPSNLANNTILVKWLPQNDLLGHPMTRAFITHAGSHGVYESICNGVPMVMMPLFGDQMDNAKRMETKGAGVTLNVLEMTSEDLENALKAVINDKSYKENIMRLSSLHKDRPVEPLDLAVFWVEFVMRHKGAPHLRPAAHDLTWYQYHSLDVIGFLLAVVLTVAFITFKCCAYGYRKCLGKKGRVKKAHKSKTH

UGT1A9 = UGT1A9 (Homo sapiens, UniProt O60656); assay: UGT1A9 mycophenolic acid glucuronidation inhibition in ultrapooled human liver microsomes
UGT1A3 = UGT1A3 (Homo sapiens, UniProt P35503); assay: UGT1A3 chenodeoxycholic acid 24-acyl-β-glucuronidation inhibition in ultrapooled human liver microsomes
Chain of UGT1A3 (P35503 29-534): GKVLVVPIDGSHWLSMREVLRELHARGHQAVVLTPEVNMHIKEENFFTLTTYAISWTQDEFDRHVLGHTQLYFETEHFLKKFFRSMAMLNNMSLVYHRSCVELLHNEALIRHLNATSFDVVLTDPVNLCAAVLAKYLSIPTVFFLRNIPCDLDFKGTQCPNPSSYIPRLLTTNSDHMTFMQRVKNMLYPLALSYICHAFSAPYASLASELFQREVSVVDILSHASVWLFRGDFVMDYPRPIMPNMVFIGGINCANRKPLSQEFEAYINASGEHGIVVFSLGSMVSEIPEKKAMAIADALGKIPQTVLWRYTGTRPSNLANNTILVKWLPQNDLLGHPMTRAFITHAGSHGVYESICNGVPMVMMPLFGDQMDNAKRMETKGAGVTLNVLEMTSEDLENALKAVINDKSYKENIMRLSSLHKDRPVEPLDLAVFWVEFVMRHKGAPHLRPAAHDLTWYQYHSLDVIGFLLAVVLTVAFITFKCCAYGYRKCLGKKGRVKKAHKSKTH

CYP3A4 = CYP3A4 (Homo sapiens, UniProt P08684); assay: CYP3A4 midazolam 1'-hydroxylase inhibition and inactivation kinetics in ultrapooled human liver microsomes; details: for IC50: CYP3A4 midazolam 1'-hydroxylase, ultrapooled human liver microsomes
Chain of CYP3A4 (P08684 whole entry): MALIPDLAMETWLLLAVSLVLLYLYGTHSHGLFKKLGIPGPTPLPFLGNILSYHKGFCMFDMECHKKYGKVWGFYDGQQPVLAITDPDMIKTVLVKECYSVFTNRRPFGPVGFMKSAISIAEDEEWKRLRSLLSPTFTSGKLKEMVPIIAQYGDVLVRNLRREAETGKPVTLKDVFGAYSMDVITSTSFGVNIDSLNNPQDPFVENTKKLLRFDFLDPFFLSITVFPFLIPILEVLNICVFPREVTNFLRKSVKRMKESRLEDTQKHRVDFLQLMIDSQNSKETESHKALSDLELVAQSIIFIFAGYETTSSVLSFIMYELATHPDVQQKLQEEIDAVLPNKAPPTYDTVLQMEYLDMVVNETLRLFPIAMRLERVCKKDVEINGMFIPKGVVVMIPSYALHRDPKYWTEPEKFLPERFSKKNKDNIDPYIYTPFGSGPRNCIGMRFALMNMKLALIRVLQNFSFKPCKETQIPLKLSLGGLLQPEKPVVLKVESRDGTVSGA

[5] = IC50 With NADPH Preincubation, 30-min preincubation with NADPH
[6] = IC50 Without NADPH Preincubation, without NADPH preincubation
[7] = human, liver microsomes, pH 7.4, probe midazolam

T1 sequence (O15244 whole entry): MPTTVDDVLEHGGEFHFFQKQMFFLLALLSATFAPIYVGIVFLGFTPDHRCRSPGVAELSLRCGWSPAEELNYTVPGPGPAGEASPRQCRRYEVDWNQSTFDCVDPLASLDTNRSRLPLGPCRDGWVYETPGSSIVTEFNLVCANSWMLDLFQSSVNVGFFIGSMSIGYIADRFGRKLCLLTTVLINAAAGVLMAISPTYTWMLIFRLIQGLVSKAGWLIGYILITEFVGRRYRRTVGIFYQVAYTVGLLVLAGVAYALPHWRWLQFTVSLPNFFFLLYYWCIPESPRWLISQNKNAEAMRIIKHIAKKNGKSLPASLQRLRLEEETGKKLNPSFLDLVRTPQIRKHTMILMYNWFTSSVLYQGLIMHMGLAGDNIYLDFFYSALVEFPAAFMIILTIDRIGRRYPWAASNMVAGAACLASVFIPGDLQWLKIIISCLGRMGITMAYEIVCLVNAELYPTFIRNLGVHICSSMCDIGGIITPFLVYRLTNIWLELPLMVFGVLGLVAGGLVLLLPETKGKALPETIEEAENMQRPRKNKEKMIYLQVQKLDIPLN

CCCCCn1nc(C(=O)N[C@H](C(N)=O)C(C)C)c2ccccc21 [AB-PINACA, N-[(2S)-1-amino-3-methyl-1-oxobutan-2-yl]-1-pentyl-1H-indazole-3-carboxamide] gave an IC50 (OCT2) of over 250 µM, an IC50 (OAT3) of 11.8 µM and a Ki (OAT3) of 8.3 µM. For the same compound, the “Mode of Inhibition, OAT3” value (OAT3; estrone-3-sulfate uptake, HEK293-OAT3 cells) was “competitively inhibited; also recorded: competitive inhibition”, the IC50 (OATP1B1) was over 250 µM and the IC50 (OATP1B3) was over 250 µM. The “fold higher in vitro binding affinity to hCB1 compared with Δ9-THC” value [1] was 23.3 fold, the Ki ([1]; read-out: receptor binding affinity to hCB1 (Ki)) was 2.87 nM and the “fold higher in vitro binding affinity to hCB2 compared with Δ9-THC” value [2] was 40.9 fold. The Ki ([2]; read-out: receptor binding affinity to hCB2 (Ki)) was 0.88 nM, the “substitution for Δ9-THC” value [3] was “substituted fully and dose dependently” and the “blood (plasma) concentration in suspected impaired driving cases” value [4] was 1.8 to 127 nM. It also gave an IC50 (CYP2B6) of over 100 µM, an IC50 (CYP2B6; read-out: IC50 With NADPH Preincubation, CYP2B6 bupropion hydroxylase, ultrapooled human liver microsomes, 30-min preincubation with NADPH) of over 100 µM and an IC50 (UGT1A1) of over 100 µM. The IC50 (CYP1A2) was over 100 µM, the IC50 (CYP1A2; read-out: IC50 With NADPH Preincubation, CYP1A2 phenacetin O-deethylase, ultrapooled human liver microsomes, 30-min preincubation with NADPH) was over 100 µM and the Ki (CYP2C8) was 16.9 µM. For the same compound, the IC50 (CYP2C8; [5]) was 30.1 µM, the IC50 (CYP2C8; [6]) was 32.5 µM and the “Mode of Inhibition, CYP2C8” value (CYP2C8; amodiaquine N-deethylation, human liver microsomes) was “mixed mode of inhibition”. It also gave an IC50 shift at 15 min (CYP2C8; human, liver microsomes, pH 7.4, probe amodiaquine) of 1.1, an IC50 (CYP2D6) of over 100 µM and an IC50 (CYP2D6; read-out: IC50 With NADPH Preincubation, CYP2D6 bufuralol 1'-hydroxylase, ultrapooled human liver microsomes, 30-min preincubation with NADPH) of over 100 µM. It also gave an IC50 (CYP2C9; [5]) of 19.3 µM, an IC50 (CYP2C9; [6]) of 17.4 µM and a Ki (CYP2C9; Ki, CYP2C9, diclofenac 4'-hydroxylation, human liver microsomes, Lineweaver–Burk and Dixon plots) of 16.1 µM. It also gave an IC50 shift at 15 min (CYP2C9; human, liver microsomes, pH 7.4, probe diclofenac) of 0.9, an IC50 (CYP2C19; [5]) of 23 µM and an IC50 (CYP2C19; [6]) of 20 µM. For the same compound, the Ki (CYP2C19; Ki, CYP2C19, [S]-mephenytoin 4'-hydroxylation, human liver microsomes, Lineweaver–Burk and Dixon plots) was 6.7 µM, the IC50 shift at 15 min (CYP2C19; human, liver microsomes, pH 7.4, probe [S]-mephenytoin) was 0.9 and the IC50 (UGT1A6) was 94 µM. It also gave an IC50 (UGT1A9) of 65.2 µM, an IC50 (UGT1A3) of 84.1 µM and a Ki (CYP3A4) of 17.6 µM. It also gave an IC50 (CYP3A4; [5]) of 24.4 µM, an IC50 (CYP3A4; [6]) of 66.4 µM and an IC50 shift at 15 min (CYP3A4; [7]) of 2.7. The kinact (CYP3A4; [7]) was 0.000674 s⁻¹ and the “Mode of Inhibition, CYP3A4” value (CYP3A4; midazolam 1'-hydroxylation, human liver microsomes) was “time-dependent inhibition”.
